Tests used:
[1] = target: T1, Human secretory PLA2 (Homo sapiens, UniProt P14555); assay: Secretory PLA2 inhibitory activity (diheptanoyl thio PC substrate, absorbance at 405 nm); type: biochemical; settings: diheptanoyl thio PC 1 mM, Triton X100 0.3 mM, pH 7.3, CaCl2 10 mM, 30 minutes, read-out: s-PLA2 Inhibition IC50
T1 sequence (P14555 21-144): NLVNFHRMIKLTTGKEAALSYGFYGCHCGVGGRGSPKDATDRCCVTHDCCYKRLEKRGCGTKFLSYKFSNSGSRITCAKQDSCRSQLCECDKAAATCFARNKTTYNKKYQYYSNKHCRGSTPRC
Procedure: Secretory PLA2 activity was assayed according to the method described in Penynolds L. J., Hughes L. L., Dennis E. A. et al. Anal. Biochem. 201,190-197 (1992).
Diheptanoyl thiophosphatidylcholine which was prepared according to the procedure described in the literature was used as a substrate. Human secretory PLA2 was used as an enzyme. The diheptanoyl thio PC (1 mM) was reacted with the human secretory PLA2 in the presence of Triton X100 (0.3 mM) and 5,5'-dithiobis-(2-nitrobenzoic acid) (125 μM) in Tris buffer (25 mM, pH 7.3), CaCl2 (10 mM), KCI (100 mM), bovine serum albumin (1.0 mg/ml), and then the change in absorbance at 405 nm at the time of 30 minutes after the reaction was assayed.
Inhibitory activity (%) was estimated by the formula: [(the change in absorbance with the inhibitor and PLA2 ·the change in absorbance with the inhibitor and without PLA2)/(the change in absorbance without the inhibitor and with PLA2 ·the change in absorbance without the inhibitor and PLA2)]×100.
IC50 value (μM) was calculated from graph showing inhibitory values on the vertical axis and log of concentrations of the inhibitor on the horizontal axis.

[2] = target: T2, intracellular PLA2 (cytosolic PLA2, cPLA2) (Homo sapiens, UniProt P47712); assay: Intracellular PLA2 (cPLA2) inhibitory activity (14C-arachidonyl phosphatidylcholine substrate); type: biochemical; settings: 2 μM radiolabelled phosphatidylcholine, 1 μM dioleoylglycerol, 1 mM CaCl2, pH 7.4; read-out: c-PLA2 Inhibition IC50
T2 sequence (P47712 1-749): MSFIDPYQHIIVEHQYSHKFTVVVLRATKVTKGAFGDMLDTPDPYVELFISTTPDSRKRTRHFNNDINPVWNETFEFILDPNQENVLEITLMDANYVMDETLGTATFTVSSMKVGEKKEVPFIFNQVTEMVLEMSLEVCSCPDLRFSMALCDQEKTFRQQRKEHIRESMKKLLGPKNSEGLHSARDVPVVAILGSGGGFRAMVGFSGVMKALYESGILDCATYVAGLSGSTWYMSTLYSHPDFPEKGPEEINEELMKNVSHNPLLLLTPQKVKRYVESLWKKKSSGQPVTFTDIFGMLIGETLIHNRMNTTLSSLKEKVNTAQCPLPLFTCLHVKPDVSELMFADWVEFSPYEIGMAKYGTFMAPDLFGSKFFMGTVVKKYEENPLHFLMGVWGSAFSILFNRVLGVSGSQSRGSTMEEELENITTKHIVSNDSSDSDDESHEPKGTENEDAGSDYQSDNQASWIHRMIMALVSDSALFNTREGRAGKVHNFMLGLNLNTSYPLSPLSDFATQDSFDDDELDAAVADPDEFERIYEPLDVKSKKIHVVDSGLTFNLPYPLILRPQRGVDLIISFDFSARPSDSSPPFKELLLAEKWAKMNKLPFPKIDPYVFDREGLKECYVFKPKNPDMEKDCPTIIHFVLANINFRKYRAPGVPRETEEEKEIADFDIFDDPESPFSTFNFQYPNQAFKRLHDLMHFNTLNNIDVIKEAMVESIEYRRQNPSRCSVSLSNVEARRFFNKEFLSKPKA
Procedure: cPLA2 activity was assayed according to the method described in R. M. Kramer, E. F. Roberts, J. Manetta and J. E. Putnam, J. Biol. Chem., 268 (8), 5268-5272 (1991). Briefly, intracellular PLA2 activity was assayed using supersonic treated […] which contain 1-palmitoyl-2-[^14 C]arachidonyl-sn-glycero-3-phosphocholine and sn-1, 2-dioleoylglycerol at a molar ratio of 2:1. This test mixture contained 1 mM CaCl2, 2 mM dithiothreitol, 150 mM NaCl, 50 mM Hepes, pH 7.4 and 0.1 mg/ml BSA. A substrate is a 2 μM radioisotope labelled phosphatidylcholine ribosome containing 1 μM dioleoylglycerol. IC50 value is calculating in the same manner as in calculating it for secretory PLA2 inhibitory activity.

SMILES | IC50 [1] [µM] | IC50 [2] [µM]
COc1c(C)c(OC(=O)c2c(C)c(C)c(OCCCOc3ccc(Cl)cc3Cl)c(C)c2OC)c(C)c(C)c1C(=O)O [Example 24, 4-{4-[3-(2,4-Dichlorophenoxy)propoxy]-2-methoxy-3,5,6-trimethylbenzoyloxy}-2-methoxy-3,5,6-trimethylbenzoic Acid] | 12 | 2.8
COc1c(C)c(OC(=O)c2c(C)c(C)c(OCCCOc3ccc(Br)cc3Br)c(C)c2OC)c(C)c(C)c1C(=O)O [Example 26, 4-{4-[3-(2,4-Dibromophenoxy)propoxy]-2-methoxy-3,5,6-trimethylbenzoyloxy}-2-methoxy-3,5,6-trimethylbenzoic Acid] | 15 | 2.6
COc1c(C)c(OC(=O)c2c(C)c(C)c(OCCCOc3cc4c(cc3C(c3ccccc3)c3ccccc3)OCO4)c(C)c2OC)c(C)c(C)c1C(=O)O [Example 27, 4-{4-[3-(6-Benzhydrylbenzo[1, 3]dioxol-5-yloxy)-propoxy]-2-methoxy-3,5,6-trimethylbenzoyloxy}-2-methoxy-3,5,6-trimethylbenzoic Acid] | 13 | 1.5
COc1c(C)c(OC(=O)c2c(C)c(C)c(OCCCOc3ccc4c(c3)OCO4)c(C)c2OC)c(C)c(C)c1C(=O)O [Example 28, 4-{4-[3-(Benzo[1, 3]dioxol-5-yloxy)propoxy]-2-methoxy-3,5,6-trimethylbenzoyloxy}-2-methoxy-3,5,6-trimethylbenzoic Acid] | 6.9 | 10
CCc1ccc(OCCCOc2c(C)c(C)c(C(=O)Oc3c(C)c(C)c(C(=O)O)c(OC)c3C)c(OC)c2C)cc1 [Example 30, 4-{4-[3-(4-Ethylphenoxy)propoxy]-2-methoxy-3,5,6-trimethylbenzoyloxy}-2-methoxy-3,5,6-trimethylbenzoic Acid] | 16 | 5.4
COc1c(C)c(OC(=O)c2c(C)c(C)c(OCCCOc3ccc(C(C)=O)cc3)c(C)c2OC)c(C)c(C)c1C(=O)O [Example 31, 4-{4-[3-(4-Acetylphenoxy)propoxy]-2-methoxy-3,5,6-trimethylbenzoyloxy}-2-methoxy-3,5,6-trimethylbenzoic Acid] | 7 | 24
COc1c(C)c(OC(=O)c2c(C)c(C)c(OCCCOc3ccc(C(=O)O)cc3)c(C)c2OC)c(C)c(C)c1C(=O)O [Example 32, 4-{4-[3-(4-Carboxyphenoxy)propoxy]-2-methoxy-3,5,6-trimethylbenzoyloxy}-2-methoxy-3,5,6-trimethylbenzoic Acid] | 10 | 38
COc1c(C)c(OC(=O)c2c(C)c(C)c(OCCCOc3ccccc3F)c(C)c2OC)c(C)c(C)c1C(=O)O [Example 33, 4-{4-[3-(2-Fluorophenoxy)propoxy]-2-methoxy-3,5,6-trimethylbenzoyloxy}-2-methoxy-3,5,6-trimethylbenzoic Acid] | 26 | 12
COc1c(C)c(OC(=O)c2c(C)c(C)c(OCCCOc3cccc(F)c3)c(C)c2OC)c(C)c(C)c1C(=O)O [Example 34, 4-{4-[3-(3-Fluorophenoxy)propoxy]-2-methoxy-3,5,6-trimethylbenzoyloxy}-2-methoxy-3,5,6-trimethylbenzoic Acid] | 50 | 9.7
COc1c(C)c(OC(=O)c2c(C)c(C)c(OCCCS(=O)(=O)c3ccc(F)cc3)c(C)c2OC)c(C)c(C)c1C(=O)O [Example 36, 4-{4-[3-(4-Fluorobenzenesulfonyl)propoxy]-2-methoxy-3,5,6-trimethylbenzoyloxy}-2-methoxy-3,5,6-trimethylbenzoic Acid] | 50 | > 50
COc1c(C)c(OC(=O)c2c(C)c(C)c(OCCCOc3cccc(F)c3F)c(C)c2OC)c(C)c(C)c1C(=O)O [Example 37, 4-{4-[3-(2,3-Difluorophenoxy)propoxy]-2-methoxy-3,5,6-trimethylbenzoyloxy}-2-methoxy-3,5,6-trimethylbenzoic Acid] | 12 | 6.6

More lines, now with the values ahead:

IC50 [1] [µM] | IC50 [2] [µM] | SMILES
6.7 | 7.1 | COc1c(C)c(OC(=O)c2c(C)c(C)c(OCCCOc3c(F)cccc3F)c(C)c2OC)c(C)c(C)c1C(=O)O [Example 38, 4-{4-[3-(2,6-Difluorophenoxy)propoxy]-2-methoxy-3,5,6-trimethylbenzoyloxy}-2-methoxy-3,5,6-trimethylbenzoic Acid]
8.9 | 12 | COc1ccccc1OCCCOc1c(C)c(C)c(C(=O)Oc2c(C)c(C)c(C(=O)O)c(OC)c2C)c(OC)c1C [Example 39, 4-{4-[3-(2-Methoxyphenoxy)propoxy]-2-methoxy-3,5,6-trimethylbenzoyloxy}-2-methoxy-3,5,6-trimethylbenzoic Acid]
6.1 | 13 | COc1cccc(OC)c1OCCCOc1c(C)c(C)c(C(=O)Oc2c(C)c(C)c(C(=O)O)c(OC)c2C)c(OC)c1C [Example 40, 4-{4-[3-(2,6-Dimethoxyphenoxy)propoxy]-2-methoxy-3,5,6-trimethylbenzoyloxy}-2-methoxy-3,5,6-trimethylbenzoic Acid]
7 | 5.9 | COc1cc(OC)cc(OCCCOc2c(C)c(C)c(C(=O)Oc3c(C)c(C)c(C(=O)O)c(OC)c3C)c(OC)c2C)c1 [Example 41, 4-{4-[3-(3,5-Dimethoxyphenoxy)propoxy]-2-methoxy-3,5,6-trimethylbenzoyloxy}-2-methoxy-3,5,6-trimethylbenzoic Acid]
5 | 31 | COc1c(C)c(OC(=O)c2c(C)c(C)c(OCCCOc3ccc(C(N)=O)cc3)c(C)c2OC)c(C)c(C)c1C(=O)O [Example 42, 4-{4-[3-(4-Carbamoylphenoxy)propoxy]-2-methoxy-3,5,6-trimethylbenzoyloxy}-2-methoxy-3,5,6-trimethylbenzoic Acid]
5.1 | 14 | COC(=O)c1ccc(OCCCOc2c(C)c(C)c(C(=O)Oc3c(C)c(C)c(C(=O)O)c(OC)c3C)c(OC)c2C)cc1 [Example 43, 4-{4-[3-(4-Methoxycarbonylphenoxy)propoxy]-2-methoxy-3,5,6-trimethylbenzoyloxy}-2-methoxy-3,5,6 trimethylbenzoic Acid]
0.94 | 9.3 | COc1c(C)c(OC(=O)c2c(C)c(C)c(OCCCOc3ccc(F)cc3)c(C)c2OC)c(C)c(C)c1C(N)=O [Example 44, 4-{4-[3-(4-Fluorophenoxy)propoxy]-2-methoxy-3,5,6-trimethylbenzoyloxy}-2-methoxy-3,5,6-trimethylbenzamide]
0.29 | > 50 | COc1c(C)c(OC(=O)c2c(C)c(C)c(OCCCOc3ccc(C(N)=O)cc3)c(C)c2OC)c(C)c(C)c1C(N)=O [Example 45, 4-{4-[3-(4-Carbamoylphenoxy)propoxy]-2-methoxy-3,5,6-trimethylbenzoyloxy}-2-methoxy-3,5,6-trimethylbenzamide]
0.74 | > 50 | COC(=O)c1ccc(OCCCOc2c(C)c(C)c(C(=O)Oc3c(C)c(C)c(C(N)=O)c(OC)c3C)c(OC)c2C)cc1 [Example 46, 4-{4-[3-(4-Methoxycarbonylphenoxy)propoxy]-2methoxy-3,5,6-trimethylbenzoyloxy}-2-methoxy-3,5,6 trimethylbenzamide]
0.22 | 22 | COc1c(C)c(OC(=O)c2c(C)c(C)c(OCCCOc3ccc(C(=O)O)cc3)c(C)c2OC)c(C)c(C)c1C(N)=O [Example 47, 4-{4-[3-(4-Carboxyphenoxy)propoxy]-2-methoxy-3,5,6-trimethylbenzoyloxy}-2-methoxy-3,5,6-trimethylbenzamide]
